According to EP4740948A1 (Dong Wha Pharm. Co., Ltd., priority 2023, dated 2025):

Experiments:
Lovo cells = assay: Cancer cell proliferation inhibition (Cell Counting Kit-8), colorectal cancer cell line; assay type: cell-based; settings: Homo sapiens, LoVo, 264 h, 1000 nM, cultured seven to 11 days; read-out: % inhibition rate LoVo
Summary of the method: (§1)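 Cells seeded at 100-1,000/well in medium with 10% FBS and treated with 1000 nM test substance for 7-11 days. Viability measured with Cell Counting Kit-8; % inhibition = {1−(test/control)} × 100.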

MIA-PaCa-2 cells = assay: Cancer cell proliferation inhibition (Cell Counting Kit-8), pancreatic cancer cell line; assay type: cell-based; settings: Homo sapiens, MIA PaCa-2, 264 h, 1000 nM, cultured seven to 11 days; read-out: % inhibition rate MIA-Paca2
Summary of the method: as §1

MKN-45 cells = assay: Cancer cell proliferation inhibition (Cell Counting Kit-8), gastric cancer cell line; assay type: cell-based; settings: Homo sapiens, MKN-45, 264 h, 1000 nM, cultured seven to 11 days; read-out: % inhibition rate MKN -45
Summary of the method: (§2)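 Cells grown in RPMI1640, McCoy's 5a, L-15 or DMEM with 10% FBS, seeded at 100 to 1,000 cells/well and treated with test substance at 1000 nM for 7 to 11 days. Viability read by CCK-8; % inhibition = {1−(test/control)} × 100.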

EZH2 = EZH2 (Homo sapiens, UniProt Q15910); assay: AlphaLISA enzyme activity inhibition, EZH2; assay type: biochemical; settings: for inhibition at 0.005 µM: 5nM test substance; for inhibition at 0.01 µM: 10nM test substance
Summary of the method: (§3)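 EZH1 or EZH2 was mixed with compound at 5 nM or 10 nM final in 20 mM Tris pH 8.0, 0.1% BSA, 0.5 mM DTT, then histone H3 peptide and SAM were added. After 2 h reaction, AlphaLISA acceptor and donor beads detected methylation; inhibition rate was calculated against DMSO control.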

SW-13 cells = assay: Cancer cell proliferation inhibition (Cell Counting Kit-8), adrenal cancer cell line; assay type: cell-based; settings: Homo sapiens, SW13, 264 h, 1000 nM, cultured seven to 11 days; read-out: % inhibition rate SW-13
Summary of the method: as §1

G401 cells = assay: Cancer cell proliferation inhibition (Cell Counting Kit-8), rhabdoid tumor cell line; assay type: cell-based; settings: Homo sapiens, G-401, 264 h, 1000 nM, cultured seven to 11 days; read-out: % inhibition rate G401
Summary of the method: as §2

EZH1 = EZH1 (Homo sapiens, UniProt Q92800); assay: AlphaLISA enzyme activity inhibition, EZH1; assay type: biochemical; settings: for inhibition at 0.005 µM: 5nM test substance; for inhibition at 0.01 µM: 10nM test substance
Summary of the method: as §3

NCI-H1299 cells = assay: Cancer cell proliferation inhibition (Cell Counting Kit-8), lung cancer cell line; assay type: cell-based; settings: Homo sapiens, NCI-H1299, 264 h, 1000 nM, cultured seven to 11 days; read-out: % inhibition rate NCI-H129 9
Summary of the method: as §1

EZH1, sequence (Q92800 whole entry, species assumed): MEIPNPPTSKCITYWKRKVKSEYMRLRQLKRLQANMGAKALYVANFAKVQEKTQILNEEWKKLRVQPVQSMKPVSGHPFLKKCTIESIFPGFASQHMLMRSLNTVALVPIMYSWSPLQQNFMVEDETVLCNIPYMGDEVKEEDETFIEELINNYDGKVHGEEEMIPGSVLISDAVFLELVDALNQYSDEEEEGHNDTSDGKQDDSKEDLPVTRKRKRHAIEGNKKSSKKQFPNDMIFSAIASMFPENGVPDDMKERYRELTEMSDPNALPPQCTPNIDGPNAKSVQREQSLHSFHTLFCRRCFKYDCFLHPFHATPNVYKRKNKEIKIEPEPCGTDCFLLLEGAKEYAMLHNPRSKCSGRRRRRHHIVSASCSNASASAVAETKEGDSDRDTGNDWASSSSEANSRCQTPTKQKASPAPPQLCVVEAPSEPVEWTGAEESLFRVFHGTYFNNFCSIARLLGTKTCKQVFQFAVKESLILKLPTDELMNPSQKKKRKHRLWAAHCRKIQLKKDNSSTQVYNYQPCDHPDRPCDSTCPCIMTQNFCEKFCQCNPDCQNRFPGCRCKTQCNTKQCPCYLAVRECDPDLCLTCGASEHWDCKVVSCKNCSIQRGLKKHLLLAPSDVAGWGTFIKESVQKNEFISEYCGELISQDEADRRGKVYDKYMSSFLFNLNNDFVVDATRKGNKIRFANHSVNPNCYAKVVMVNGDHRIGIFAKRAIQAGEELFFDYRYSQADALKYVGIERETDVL
EZH1, sequence (O75530 whole entry partner, species assumed): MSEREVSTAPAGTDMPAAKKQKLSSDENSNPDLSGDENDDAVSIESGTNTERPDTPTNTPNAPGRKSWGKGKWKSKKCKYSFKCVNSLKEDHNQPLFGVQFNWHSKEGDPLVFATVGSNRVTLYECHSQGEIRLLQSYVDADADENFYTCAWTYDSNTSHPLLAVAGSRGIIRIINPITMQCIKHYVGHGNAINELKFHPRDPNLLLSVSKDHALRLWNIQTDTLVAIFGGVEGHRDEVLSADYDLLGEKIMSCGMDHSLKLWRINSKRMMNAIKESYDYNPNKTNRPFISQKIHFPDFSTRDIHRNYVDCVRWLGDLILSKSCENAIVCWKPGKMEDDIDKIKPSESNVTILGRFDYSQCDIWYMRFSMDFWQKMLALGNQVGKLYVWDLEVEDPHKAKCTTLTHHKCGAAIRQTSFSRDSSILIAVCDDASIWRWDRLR
EZH1, sequence (Q15022 whole entry partner, species assumed): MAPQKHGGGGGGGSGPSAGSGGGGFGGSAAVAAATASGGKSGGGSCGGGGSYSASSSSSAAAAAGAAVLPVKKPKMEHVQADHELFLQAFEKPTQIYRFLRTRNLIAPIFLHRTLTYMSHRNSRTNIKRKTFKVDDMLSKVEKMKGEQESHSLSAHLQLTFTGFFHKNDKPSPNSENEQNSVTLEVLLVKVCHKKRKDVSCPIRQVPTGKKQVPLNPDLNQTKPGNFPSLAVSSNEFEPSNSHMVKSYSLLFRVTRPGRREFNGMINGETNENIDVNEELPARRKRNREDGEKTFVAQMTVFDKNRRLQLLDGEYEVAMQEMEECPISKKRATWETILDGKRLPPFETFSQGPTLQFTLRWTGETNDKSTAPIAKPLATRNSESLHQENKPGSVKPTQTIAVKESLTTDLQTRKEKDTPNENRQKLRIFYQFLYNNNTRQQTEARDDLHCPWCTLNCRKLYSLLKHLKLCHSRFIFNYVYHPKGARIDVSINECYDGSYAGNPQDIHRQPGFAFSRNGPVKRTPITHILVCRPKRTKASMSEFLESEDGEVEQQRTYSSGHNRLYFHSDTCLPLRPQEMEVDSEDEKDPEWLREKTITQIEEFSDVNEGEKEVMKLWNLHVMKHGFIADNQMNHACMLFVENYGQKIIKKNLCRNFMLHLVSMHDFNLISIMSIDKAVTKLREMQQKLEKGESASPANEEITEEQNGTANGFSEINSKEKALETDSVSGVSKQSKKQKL
EZH2, sequence (Q15910 whole entry, species assumed): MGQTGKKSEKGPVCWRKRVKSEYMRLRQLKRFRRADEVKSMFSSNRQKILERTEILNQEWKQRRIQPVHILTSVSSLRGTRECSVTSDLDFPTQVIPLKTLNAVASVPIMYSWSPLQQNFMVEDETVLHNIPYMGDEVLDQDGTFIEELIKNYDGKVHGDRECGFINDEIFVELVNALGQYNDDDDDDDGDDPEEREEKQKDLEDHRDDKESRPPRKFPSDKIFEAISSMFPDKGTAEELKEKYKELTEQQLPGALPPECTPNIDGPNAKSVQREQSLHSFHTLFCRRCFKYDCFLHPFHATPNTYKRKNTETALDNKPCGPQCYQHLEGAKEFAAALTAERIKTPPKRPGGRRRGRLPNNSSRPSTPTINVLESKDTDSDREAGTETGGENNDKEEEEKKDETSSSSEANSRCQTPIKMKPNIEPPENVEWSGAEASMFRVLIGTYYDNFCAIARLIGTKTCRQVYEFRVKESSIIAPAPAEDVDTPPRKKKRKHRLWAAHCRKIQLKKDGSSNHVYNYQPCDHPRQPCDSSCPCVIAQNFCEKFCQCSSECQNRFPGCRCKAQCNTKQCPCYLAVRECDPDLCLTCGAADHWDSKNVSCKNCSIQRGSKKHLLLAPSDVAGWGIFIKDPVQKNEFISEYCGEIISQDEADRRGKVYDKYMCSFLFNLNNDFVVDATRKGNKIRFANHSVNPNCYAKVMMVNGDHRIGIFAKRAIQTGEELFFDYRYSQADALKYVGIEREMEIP
EZH2, sequence (O75530 whole entry partner, species assumed): as the sequence (O75530 whole entry partner, species assumed) above
EZH2, sequence (Q15022 whole entry partner, species assumed): as the sequence (Q15022 whole entry partner, species assumed) above

inhibition at 0.005 µM (EZH2) [%]	inhibition at 0.01 µM (EZH2) [%]	inhibition at 0.005 µM (EZH1) [%]	inhibition at 0.01 µM (EZH1) [%]	Structure (SMILES)	inhibition at 1 µM (Lovo cells) [%]	inhibition at 1 µM (MIA-PaCa-2 cells) [%]	inhibition at 1 µM (MKN-45 cells) [%]	inhibition at 1 µM (SW-13 cells) [%]	inhibition at 1 µM (G401 cells) [%]	inhibition at 1 µM (NCI-H1299 cells) [%]
83.2	91.1	38.1	46	CSc1cc(C)[nH]c(=O)c1CNC(=O)c1cc(-c2ccc3c(c2)OCO3)c2c(c1C)OC(C)(C1CCN(CC(F)F)CC1)O2 (stereo not drawn) [Compound 95, 2-(1-(2,2-difluoroethyl)piperidin-4-yl)-2,7-dimethyl-N-((6-methyl-4-(methylthio)-2-oxo-1,2-dihydropyridin-3-yl)methyl)-[4,5'-bibenzo[d][1,3]dioxole]-6-carboxamide]	≥ 70	≤ 30	30 to 70	≤ 30	≥ 70	≤ 30
58.4	78	19.2	14.8	CSc1cc(C)[nH]c(=O)c1CNC(=O)c1cc(-c2ccc3occc3c2)c2c(c1C)OC(C)(C1CCN(CC(F)(F)F)CC1)O2 (stereo not drawn) [Compound 96, 7-(benzofuran-5-yl)-2,4-dimethyl-N-((6-methyl-4-(methylthio)-2-oxo-1,2-dihydropyridin-3-yl)methyl)-2-(1-(2,2,2-trifluoroethyl)piperidin-4-yl)benzo[d][1,3]dioxole-5-carboxamide]	≥ 70	≤ 30	≤ 30	≤ 30	≤ 30	≤ 30
74.7	82.3	25.9	20.5	CSc1cc(C)[nH]c(=O)c1CNC(=O)c1cc(-c2ccc3occc3c2)c2c(c1C)OC(C)(C1CCN(CC(F)F)CC1)O2 (stereo not drawn) [Compound 97, 7-(benzofuran-5-yl)-2-(1-(2,2-difluoroethyl)piperidin-4-yl)-2,4-dimethyl-N-((6-methyl-4-(methylthio)-2-oxo-1,2-dihydropyridin-3-yl)methyl)benzo[d][1,3]dioxole-5-carboxamide]	≥ 70	≤ 30	30 to 70	≤ 30	30 to 70	≤ 30
52.2	48.9	30.9	17.6	CCCCN(C)c1ccc(-c2cc(C(=O)NCc3c(SC)cc(C)[nH]c3=O)c(C)c3c2OC(C)(C2CCN(CC(F)(F)F)CC2)O3)cn1 (stereo not drawn) [Compound 98, 7-(6-(butyl(methyl)amino)pyridin-3-yl)-2,4-dimethyl-N-((6-methyl-4-(methylthio)-2-oxo-1,2-dihydropyridin-3-yl)methyl)-2-(1-(2,2,2-trifluoroethyl)piperidin-4-yl)benzo[d][1,3]dioxole-5-carboxamide]	≥ 70	≤ 30	30 to 70	≤ 30	30 to 70	≤ 30
62.4	76.5	37.1	42.9	CCCCN(C)c1ncc(-c2cc(C(=O)NCc3c(SC)cc(C)[nH]c3=O)c(C)c3c2OC(C)(C2CCN(CC(F)(F)F)CC2)O3)cn1 (stereo not drawn) [Compound 99]	≥ 70	≤ 30	30 to 70	30 to 70	30 to 70	≤ 30

More lines, now with the values behind:

Structure (SMILES)	inhibition at 0.005 µM (EZH2) [%]	inhibition at 0.01 µM (EZH2) [%]	inhibition at 0.005 µM (EZH1) [%]	inhibition at 0.01 µM (EZH1) [%]	inhibition at 1 µM (Lovo cells) [%]	inhibition at 1 µM (MIA-PaCa-2 cells) [%]	inhibition at 1 µM (MKN-45 cells) [%]	inhibition at 1 µM (SW-13 cells) [%]	inhibition at 1 µM (G401 cells) [%]	inhibition at 1 µM (NCI-H1299 cells) [%]
CCN1CCN(c2ncc(-c3cc(C(=O)NCc4c(SC)cc(C)[nH]c4=O)c(C)c4c3OC(C)(C3CCN(CC(F)(F)F)CC3)O4)cn2)CC1 (stereo not drawn) [Compound 75, 7-(2-(4-ethylpiperazin-1-yl)pyrimidin-5-yl)-2,4-dimethyl-N-((6-methyl-4-(methylthio)-2-oxo-1,2-dihydropyridin-3-yl)methyl)-2-(1-(2,2,2-trifluoroethyl)piperidin-4-yl)benzo[d][1,3]dioxole-5-carboxamide]	79	99.7	61.3	86	≥ 70	≤ 30	30 to 70	30 to 70	≥ 70	≤ 30
CCN(C)c1ncc(-c2cc(C(=O)NCc3c(SC)cc(C)[nH]c3=O)c(C)c3c2OC(C)(C2CCN(CC(F)(F)F)CC2)O3)cn1 (stereo not drawn) [Compound 78]	86.1	98.1	53.1	79.3	≥ 70	≤ 30	30 to 70	≤ 30	≥ 70	≤ 30
CSc1cc(C)[nH]c(=O)c1CNC(=O)c1cc(-c2ccc(N3CCCCC3)cc2)c2c(c1C)OC(C)(C1CCN(CC(F)(F)F)CC1)O2 (stereo not drawn) [Compound 90, 2,4-dimethyl-N-((6-methyl-4-(methylthio)-2-oxo-1,2-dihydropyridin-3-yl)methyl)-7-(4-(piperidin-1-yl)phenyl)-2-(1-(2,2,2-trifluoroethyl)piperidin-4-yl)benzo[d][1,3]dioxole-5-carboxamide]	60.1	82.3	20.2	16.2	≥ 70	≤ 30	≤ 30	≤ 30	30 to 70	≤ 30
CSc1cc(C)[nH]c(=O)c1CNC(=O)c1cc(-c2ccc(N3CCCCC3)nc2)c2c(c1C)OC(C)(C1CCN(CC(F)(F)F)CC1)O2 (stereo not drawn) [Compound 91, 2,4-dimethyl-N-((6-methyl-4-(methylthio)-2-oxo-1,2-dihydropyridin-3-yl)methyl)-7-(6-(piperidin-1-yl)pyridin-3-yl)-2-(1-(2,2,2-trifluoroethyl)piperidin-4-yl)benzo[d][1,3]dioxole-5-carboxamide]	47.4	71.6	24.5	41	≥ 70	≤ 30	≤ 30	≤ 30	30 to 70	≤ 30
CSc1cc(C)[nH]c(=O)c1CNC(=O)c1cc(-c2cnc(N3CCSCC3)nc2)c2c(c1C)OC(C)(C1CCN(CC(F)(F)F)CC1)O2 (stereo not drawn) [Compound 92, 2,4-dimethyl-N-((6-methyl-4-(methylthio)-2-oxo-1,2-dihydropyridin-3-yl)methyl)-7-(2-thiomorpholinopyrimidin-5-yl)-2-(1-(2,2,2-trifluoroethyl)piperidin-4-yl)benzo[d][1,3]dioxole-5-carboxamide]	80.1	91.8	27.2	43.2	≥ 70	≤ 30	30 to 70	≤ 30	≥ 70	≤ 30
CSc1cc(C)[nH]c(=O)c1CNC(=O)c1cc(-c2ccc3c(c2)OC(F)(F)O3)c2c(c1C)OC(C)(C1CCN(CC(F)(F)F)CC1)O2 (stereo not drawn) [Compound 93, 2',2'-difluoro-2,7-dimethyl-N-((6-methyl-4-(methylthio)-2-oxo-1,2-dihydropyridin-3-yl)methyl)-2-(1-(2,2,2-trifluoroethyl)piperidin-4-yl)-[4,5'-bibenzo[d][1,3]dioxole]-6-carboxamide]	32.2	37.9	16.8	12.7	≥ 70	≤ 30	≤ 30	30 to 70	≤ 30	≤ 30
CSc1cc(C)[nH]c(=O)c1CNC(=O)c1cc(-c2ccc3c(c2)OCO3)c2c(c1C)OC(C)(C1CCN(CC(F)(F)F)CC1)O2 (stereo not drawn) [Compound 94, 2,7-dimethyl-N-((6-methyl-4-(methylthio)-2-oxo-1,2-dihydropyridin-3-yl)methyl)-2-(1-(2,2,2-trifluoroethyl)piperidin-4-yl)-[4,5'-bibenzo[d][1,3]dioxole]-6-carboxamide]	65.1	82	25.3	28.5	≥ 70	≤ 30	≤ 30	≤ 30	≤ 30	≤ 30
